Data set [1] can be described thus: Particle size of jet-milled / spray-dried DHEA-S (Malvern Mastersizer X, light microscope). Conditions: double pass through the jet mill. In kind it is physicochemical. The protocol: Approximately 1 g sample was passed through the jet mill, once, and approximately 2 g sample were passed through the jet mill twice. […] The resulting solution was sonicated for 3 minutes and appeared fully dispersed. The dispersed solutions were tested on a Malvern Mastersizer X with a small volume sampler (SVS) attachment. One sample of dispersed material was tested 5 times. The median particle size or D (v, 0.5) of unmilled material was 52.56 μm and the % RSD (relative standard deviation) was 7.61 for the 5 values. The D (v, 0.5) for a single pass through the jet mill was 3.90 μm and the % RSD was 1.27, and the D (v, 0.5) from a double pass through the jet mill […] and the % RSD was 3.10.
The solution was spray-dried with a B-191 Mini Spray-Drier (Buchi, Flawil, Switzerland) with an inlet temperature of 55° C., outlet temperature of 40° C., at 100% aspirator, at 10% pump, nitrogen flow at 40 mbar and spray flow at 600 units. The spray-dried product was suspended in hexane and Span85 surfactant added to reduce agglomeration. The dispersions were sonicated with cooling for 3-5 minutes for complete dispersion and the dispersed solutions tested on a Malvern Mastersizer X with a Small Volume Sampler (SVS) attachment. […] Visual examination by light microscope of the dispersions of each batch confirmed that spray drying produced small respirable size particles. […]

Data set [2] in a line: Physicochemical testing of DHEA-S dihydrate before and after micronization. Conditions: for Water: Karl Fischer. As for the experimental part:
Surface area is determined using five point BET analyses are performed with nitrogen as the adsorbing gas (P/Po=0.05 to 0.30) using a Micromeritics TriStar surface area analyzer. Particle size distributions are measured by laser diffraction using a Micromeritics Saturn Digisizer where the particles are suspended in mineral oil with sodium dioctyl sodium sulfosuccinate as a dispersing agent. Drug substance water content is measured by Karl Fischer titration (Schott Titroline KF). Pure water is used as the standard and all relative standard deviations for triplicates are less than 1%. Powder is added directly to the titration media.

A further data set has as its system Human ASM cells. Kind of data set: [3H]-thymidine incorporation (DNA synthesis) in human airway smooth muscle cells. As to conditions: alone or in combinations. It is filed as cell-based. The source says: Human ASM cells were obtained from the distal trachea of transplant donors in compliance with the University of Pennsylvania's Institutional Review Board. Distal trachealis was dissected free of connective tissue and enzymatically digested to yield approximately 1×10^4 human ASM cells. […] The cells were scraped and placed on filters which were then counted using a beta counter. All experiments were repeated in a minimum of three human ASM cell lines. All conditions per experiment were run with six replicates.
There are three classes of commonly used anti-asthma medications that alter cAMP concentrations and/or adenosine concentrations. These classes of drugs are: methylxanthines, beta-agonists and phosphodiesterase inhibitors. For each of these drug classes, isobutylmethylxanthine (IBMX) was used as the tool compound to inhibit smooth muscle proliferation.

The next data set can be described thus: Solubility of DHEA-S. In kind it is physicochemical. The source says: Inhalation of pure water can produce a cough stimulus. […] The temperature effect is weaker at high NaCl concentrations.
Data set [3] in a line: Short-term solution stability of DHEA-S nebulizer formulation. It is filed as physicochemical. As to conditions: 10 mg/mL in 0.12% NaCl, RT (24-26° C.). The protocol:
Aliquots of this solution are filled into clear glass vials and stored at RT (24-26° C.) and at 40° C. The samples are checked daily for DHEA-S content, DHEA content, and appearance. For each time point, duplicate samples are withdrawn and diluted from each vial. […] The study is stopped on day three. […] The solution should easily be stable for the day of reconstitution in a clinical trial. The following section describes the aerosol properties of this formulation.

For data set [4], the system named is HT-29 SF cells. The data set is described as follows: Reversal of DHEA-mediated growth inhibition. In kind it is cell-based, human. Conditions: 25 μM DHEA, 48 hours of treatment.
For data set [5], the system named is HT-29 SF cells. The data set is described as follows: Reversal of DHEA effect on cell cycle. It is filed as cell-based, human. As to conditions: 25 FM DHEA.
Data set [6] deals with HT-29 SF cells. Kind of data set: DHEA effect on cell cycle (flow cytometry). In kind it is cell-based, human. Conditions: 25-200 μM, 24-72 hours. As for the experimental part: Cells were plated at 10^5/60-mm dish in duplicate. […] Cultures were trypsinized following 0, 24, 48, or 74 hours and fixed and stained using a modification of a procedure of Bauer et al., Cancer Res. 46, 3173-3178 (1986). Briefly, cells were collected by centrifugation and resuspended in cold phosphate-buffered saline. Cells were fixed in 70% ethanol, washed, and resuspended in phosphate-buffered saline.
After 24, 48, and 72 hours, cells were harvested, fixed in ethanol, and stained with propidium iodide, and the DNA content/cell was determined by flow cytometric analysis. The percentage of cells in G1, S, and G2M phases was calculated using the Cellfit cell cycle analysis program. S phase is marked by a quadrangle for clarity. Representative histograms from duplicate determinations are shown. The experiment was repeated three times.

Data set [7] deals with HT-29 SF cells. Kind of data set: DHEA effect on cell growth. Conditions: 12.5-200 μM, 24-72 hours.
Protocol: Cell cultures, HT-29 SF cells, which represent a subline of HY-29 cells (ATCC, Rockville, Md.) and are adapted for growth in completely defined serum-free PC-1 medium (Ventrex, Portland, Me.), were obtained. Stock cultures were maintained in this medium at 37° C. (in a humidified atmosphere containing 5% CO2).
For another data set, the system named is Intracellular adenosine. In kind it is in vivo, rat. The protocol:
Folinic acid (50 mg/kg) was administered intraperitoneally once daily for fourteen days. […] Hearts were removed from animals and flash frozen in liquid nitrogen with 10 s of death. Liver and lungs were removed en bloc and flash frozen with […]. Brain tissue was subsequently dissected.

For data set [8] the following is noted: COPD patients, background; cited from earlier work.

Structures are written as SMILES. Several values for one entry are separate records, joined by “and”; a condition that tells them apart may be missing. Equal entries are not always repeated. Where two headings read alike, the source gives them in different places.

For the compound `C[C@]12CC[C@H](OS(=O)(=O)[O-])CC1=CC[C@@H]1[C@@H]2CC[C@]2(C)C(=O)CC[C@@H]12.[Na+]` [Anhydrous DHEA-S, sodium dehydroepiandrostenone sulfate], the “Median particle size D (v, 0.5)” value in data set [1] is listed as 3.25 ™.

For `C[C@]12CC[C@H](OS(=O)(=O)[O-])CC1=CC[C@@H]1[C@@H]2CC[C@]2(C)C(=O)CC[C@@H]12.[Na+]` [DHEA-S dihydrate, sodium dehydroepiandrostenone sulfate], in [2] (Bulk), the Impurities result is on record as “No significant peaks” and the Water worked out at 8.5 % w/w. In [2] (Micronized), the Impurities entry was “No significant peaks” and the Water came to 8.4 % w/w. Also, the Surface area in [2] (Micronized, five point BET) came to 4.9 m^2/g.

Consider `C[C@]12CC[C@H](OS(=O)(=O)[O-])CC1=CC[C@@H]1[C@@H]2CC[C@]2(C)C(=O)CC[C@@H]12.[Na+]` [DHEA-S, sodium dehydroepiandrostenone sulfate], for which the “Effect on smooth muscle proliferation without EGF stimulation (FIG. 18)” value with Human ASM cells is recorded as “neither IBMX nor DHEA-S alone or in combinations inhibits smooth muscle proliferation”. Besides, in “Solubility of DHEA-S” (15° C., 20 mM Na+, Ksp 1316 mM^2), the “Estimated DHEA-S concentration in solution” value was 27.5 mM and 10.7 mg/mL. Besides, the “Ksp at 15° C.” value in the data set “Solubility of DHEA-S” (interpolated versus reciprocal of absolute temperature) was determined as 1316 mM^2. Further, the “Appearance of solution on storage” value in [3] is “a slight precipitate is observed on the third day”.

As for `CC(C)=CCC/C(C)=C/CC/C(C)=C/CC/C=C(\C)CC/C=C(\C)CCC=C(C)C` [SQ, squalene], in the data set with HT-29 SF cells [4], the “Effect of supplement on DHEA-induced growth inhibition” value is given as “no such effect”.

For `C[C@@](O)(CCO)CC(=O)O` [MVA, mevalonic acid], the “Effect of supplement on DHEA-induced reduction of S phase cells” value with HT-29 SF cells [5] (48 hours) is “partially prevented this effect”; in the data set on HT-29 SF cells [5] (72 hours) it was “not after 72 hours”. Moreover, the “Effect of supplement on DHEA-induced growth inhibition” value with HT-29 SF cells [4] is given as “partially overcome”.

As for `C[C@]12CC[C@H](O)CC1=CC[C@@H]1[C@@H]2CC[C@]2(C)C(=O)CC[C@@H]12` [DHEA, 3β-hydroxyandrost-5-en-17-one], the “Solubility in water (in words)” value in “Solubility of DHEA-S” (water) was “insoluble in water”. In addition, the “Cell cycle effect (in words)” value in the data set on HT-29 SF cells [6] was “produced a G1 block in HT-29 SF cells in a time- and dose-dependent manner”. Further, in the data set on HT-29 SF cells [7], the “Inhibition of growth (in words)” value is “time- and dose-dependent inhibition of growth”. Also, the “Effect on tissue adenosine (in words)” value with Intracellular adenosine (rat, in vivo) is “multi-organ depletion of adenosine”.

For the compound `Nc1nc(=O)c2c([nH]1)NCC(CNc1ccc(C(=O)N[C@@H](CCC(=O)O)C(=O)O)cc1)N2C=O` (mixture of isomers) [Folinic Acid, Folinic acid], the “Effect of folinic acid alone on adenosine levels” value in the data set on Intracellular adenosine (administered alone) was “increase in adenosine levels for all organs studied”. For the same compound, in the data set with Intracellular adenosine (coadministration with DHEA or methyltestosterone), the “Effect of coadministered folinic acid on steroid-mediated adenosine depletion” value was “completely abrogated steroid-mediated adenosine depletion”.

As for `Cn1c(=O)c2[nH]cnc2n(C)c1=O` [Theophylline, 3,7-dihydro-1,3-dimethyl-1H-purine-2,6-dione], the “Serum concentrations required for optimal effects” value in data set [8] was 15 to 20 mg/L.

Turning to `CC(C)CCC[C@@H](C)[C@H]1CC[C@H]2[C@@H]3CC=C4C[C@@H](O)CC[C@]4(C)[C@H]3CC[C@]12C` [CH, cholesterol], the “Effect of supplement on DHEA-induced reduction of S phase cells” value in the data set with HT-29 SF cells [5] (48 hours) is “very little effect”; in the data set with HT-29 SF cells [5] (72 hours), “no effect”. Further, the “Effect of supplement on DHEA-induced growth inhibition” value with HT-29 SF cells [4] was “no such effect”.

With `C[C@]12CCC(=O)C=C1CC[C@@H]1[C@@H]2CC[C@@]2(C)[C@H]1CC[C@]2(C)O` [Methyltestosterone, methyltestosterone], the “Effect on tissue adenosine (in words)” value in the data set on Intracellular adenosine (daily for two weeks) is given as “multi-organ depletion of adenosine”.
